From US11427553B2, “Dihydrooxadiazinones” (Bayer Aktiengesellschaft, priority 2017, dated 2022)

Key:
[1] = test system: HeLa cells; experiment: Assay 1 cell proliferation measurement (CTG, 72 h), HeLa; assay type: cell-based, human; settings: Homo sapiens, HeLa; Assay 1, 72 h, Cell Titer Glo; read-out: HeLa IC50 [nM] (Cervical cancer)
In short: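 Seed cells, incubate overnight at 37 °C; measure baseline viability (CTG, 0 h plate); dose compound in a 10-step 2.5-fold series (max generally 100 nM final, DMSO 0.3%) for 72 h; read CTG luminescence; fit IC50 with 4 parameters.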

[2] = target: human full length PDE3A (Homo sapiens (Human), UniProt Q14432); experiment: Assay 4 PDE3A enzyme inhibition (3H-cAMP SPA); assay type: biochemical; settings: Sf9 cell extract
Description: Assay 4 Method for PDE3A Enzyme Inhibition
(§1) The commercially available 3H-cAMP Scintillation Proximity Assay (SPA, Perkin Elmer) system was used for enzyme inhibition studies. For the determination of the in vitro effect of example compounds on the PDE3A reactions 2 μl of the respective example compound solution in DMSO (serial dilutions) were placed in wells of microtiter plates (Isoplate-96/200W; Perkin Elmer). 50 μl of a dilution of PDE3A cell extract from Sf9 cells overexpressing human full length PDE3A (SB Drug Discovery, UK) in buffer A (50 mM Tris/HCl pH 7.5, 8.3 mM MgCl2, 1.7 mM EDTA, 0.2% BSA) was added. The dilution of the PDE3A cell extract was chosen such that the reaction kinetics was linear and less than 70% of the substrate was consumed (typical dilution 1:5000). The reaction was started by addition of 50 μl (0.025 μCi) of 1:2000 in buffer A w/o BSA diluted substrate [8-3H]adenosine 3′, 5′-cyclic phosphate (1 μCi/μl; Perkin Elmer). After incubation at room temperature for 60 min, the reaction was stopped by addition of 25 μl of a suspension containing 18 mg/ml yttrium scintillation proximity beads (Perkin Elmer) in water. The microtiter plates were sealed and measured in a Microbeta scintillation counter (PerkinElmer Wallac). IC50 values were determined from sigmoidal curves by plotting percentage PDE3A activity vs log compound concentration.

[3] = test system: SK-MEL-3 cells; experiment: Assay 1 cell proliferation measurement (CTG, 72 h), SK-MEL-3; assay type: cell-based, human; settings: Homo sapiens, SK-MEL3; Assay 1, 72 h, Cell Titer Glo; read-out: SK-MEL-3 IC50 [nM] (melanoma)
Description: Cell Proliferation Measurement
The antiproliferative activity of the compounds of the general formula (I) was examined in vitro in human cancer cells. For this purpose, the appropriate number of cells (Hela: 800; SK-MEL-3: 1000; A549: 800) were plated in 384-well plates with appropriate growth medium ((A549: DMEM/Ham's F12 (Biochrom; #FG 4815 with stabile Glutamine), FCS 10% final (Biochrom; #S 0415); Hela: DMEM/Ham's F12 (Biochrom; #FG 4815 with stabile Glutamine), FCS 10% final (Biochrom; #S 0415); SK-MEL-3: McCoy's 5A (Biochrom; #F 1015), FCS 10% final (Biochrom; #S 0415), L-Alanyl-L-Glutamine final: 2 mM, (Biochrom; #K 0302)) and incubated at 37° C. overnight. After 24 h, cells on one plate (0 h plate) were treated with 30 μl/cavity of CTG solution (Promega Cell Titer Glo (catalogue #G755B and G756B)) and incubated at room temperature for 10 min, and luminescence was measured by means of a VICTOR V (Perkin Elmer), in order to determine cell viability on commencement of treatment. The cells on the test plate were treated with the compounds of the general formula (I) as and incubated at 37° C. for 72 h. The compounds were added to the cells by means of an HP D300 digital dispenser in a 10-step 2.5-fold dilution series generally starting at a maximum final drug concentration of 100 nM. As control, the cells were treated with vehicle (DMSO at 0.3% final concentration). After 72 h, the cells were treated with 30 μl/cavity of CTG solution (Promega Cell Titer Glo (catalogue #G755B and G756B)) and incubated at room temperature for 10 min. and luminescence was measured by means of a VICTOR V (Perkin Elmer), in order to determine cell viability at the end of treatment. The percentage effect on cell growth and the IC50 derived therefrom were determined for each test substance using the values from the 0 h plate […] and the DMSO control […]. The IC50 values were calculated using a 4-parameter fit.

[4] = target: human full length PDE3B (Homo sapiens (Human), UniProt Q13370); experiment: Assay 5 PDE3B enzyme inhibition (3H-cAMP SPA); assay type: biochemical; settings: Sf9 cell extract
Description: as §1, with “PDE3B” for “PDE3A”, “1:6000).” for “1:5000).”

human full length PDE3A, sequence (Q14432 whole entry): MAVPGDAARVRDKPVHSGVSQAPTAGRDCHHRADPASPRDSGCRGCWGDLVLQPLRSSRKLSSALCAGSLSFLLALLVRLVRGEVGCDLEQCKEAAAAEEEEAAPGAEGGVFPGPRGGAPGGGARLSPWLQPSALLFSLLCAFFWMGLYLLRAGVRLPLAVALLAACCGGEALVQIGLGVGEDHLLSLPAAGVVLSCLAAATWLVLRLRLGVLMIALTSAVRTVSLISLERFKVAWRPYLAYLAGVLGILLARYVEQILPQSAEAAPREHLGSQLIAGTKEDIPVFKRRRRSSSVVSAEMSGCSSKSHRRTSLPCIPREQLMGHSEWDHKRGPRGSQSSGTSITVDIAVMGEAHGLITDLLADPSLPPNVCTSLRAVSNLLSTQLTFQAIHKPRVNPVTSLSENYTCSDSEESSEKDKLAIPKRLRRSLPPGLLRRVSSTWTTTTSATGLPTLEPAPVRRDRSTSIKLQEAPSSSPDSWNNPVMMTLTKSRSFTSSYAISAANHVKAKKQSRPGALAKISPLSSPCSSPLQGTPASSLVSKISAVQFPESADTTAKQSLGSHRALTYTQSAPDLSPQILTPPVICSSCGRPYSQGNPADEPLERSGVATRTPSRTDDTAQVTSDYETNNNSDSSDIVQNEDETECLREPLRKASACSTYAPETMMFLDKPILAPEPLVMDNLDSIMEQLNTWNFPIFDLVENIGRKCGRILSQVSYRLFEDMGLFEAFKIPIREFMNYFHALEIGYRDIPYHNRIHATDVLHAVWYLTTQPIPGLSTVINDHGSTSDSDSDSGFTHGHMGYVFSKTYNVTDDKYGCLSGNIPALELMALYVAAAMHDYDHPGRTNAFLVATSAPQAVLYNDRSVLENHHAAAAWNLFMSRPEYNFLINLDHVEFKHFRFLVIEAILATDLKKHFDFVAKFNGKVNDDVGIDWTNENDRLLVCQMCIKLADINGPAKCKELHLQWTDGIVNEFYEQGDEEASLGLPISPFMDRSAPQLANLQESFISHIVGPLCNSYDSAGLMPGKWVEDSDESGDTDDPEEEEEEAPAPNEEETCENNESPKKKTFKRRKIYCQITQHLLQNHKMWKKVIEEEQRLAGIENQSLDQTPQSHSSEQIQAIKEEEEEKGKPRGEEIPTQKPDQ
human full length PDE3B, sequence (Q13370 whole entry): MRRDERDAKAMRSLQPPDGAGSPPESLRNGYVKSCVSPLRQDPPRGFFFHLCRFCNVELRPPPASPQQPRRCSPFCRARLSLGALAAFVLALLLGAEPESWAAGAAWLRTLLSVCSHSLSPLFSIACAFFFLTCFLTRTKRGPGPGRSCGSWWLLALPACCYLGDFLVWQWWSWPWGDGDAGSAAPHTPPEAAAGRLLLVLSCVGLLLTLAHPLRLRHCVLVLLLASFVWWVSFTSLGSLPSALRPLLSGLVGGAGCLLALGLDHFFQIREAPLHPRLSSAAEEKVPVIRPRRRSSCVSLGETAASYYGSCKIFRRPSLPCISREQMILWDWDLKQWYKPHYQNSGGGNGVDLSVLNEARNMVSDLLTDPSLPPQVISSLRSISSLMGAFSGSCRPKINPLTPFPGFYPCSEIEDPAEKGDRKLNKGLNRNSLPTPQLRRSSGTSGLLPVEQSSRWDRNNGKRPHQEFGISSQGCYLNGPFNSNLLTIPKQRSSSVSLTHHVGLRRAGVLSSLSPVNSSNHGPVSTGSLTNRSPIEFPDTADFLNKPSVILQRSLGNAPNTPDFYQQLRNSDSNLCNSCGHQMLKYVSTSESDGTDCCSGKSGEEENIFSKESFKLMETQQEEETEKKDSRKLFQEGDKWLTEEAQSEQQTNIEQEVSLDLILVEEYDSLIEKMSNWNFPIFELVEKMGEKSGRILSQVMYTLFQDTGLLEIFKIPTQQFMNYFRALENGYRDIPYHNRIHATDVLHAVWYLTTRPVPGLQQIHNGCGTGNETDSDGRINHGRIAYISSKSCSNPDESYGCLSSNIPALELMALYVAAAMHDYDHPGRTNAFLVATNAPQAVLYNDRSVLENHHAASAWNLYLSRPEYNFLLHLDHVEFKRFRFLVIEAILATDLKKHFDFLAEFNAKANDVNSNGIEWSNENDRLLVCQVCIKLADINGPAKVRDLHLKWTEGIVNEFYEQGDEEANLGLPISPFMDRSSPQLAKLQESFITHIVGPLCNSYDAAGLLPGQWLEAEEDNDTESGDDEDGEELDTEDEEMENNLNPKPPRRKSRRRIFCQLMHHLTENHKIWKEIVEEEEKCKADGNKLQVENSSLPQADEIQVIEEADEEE

IC50 [1] [nM] | IC50 [2] [nM] | IC50 [3] [nM] | IC50 [4] [nM] | SMILES
> 100 | > 1000 | > 100 | > 1000 | CN(C)CCN(C)c1ccc(C2=NNC(=O)OC2)cc1C(F)(F)F [Example 324, 5-[4-{[2-(dimethylamino)ethyl](methyl)amino}-3-(trifluoromethyl)phenyl]-3,6-dihydro-2H-1,3,4-oxadiazin-2-one]
2 | 75 | 2 | 112 | O=C1NN=C(c2cc(F)c(N3CCOCC3)c(C(F)(F)F)c2)CO1 [Example 264, 5-[3-Fluoro-4-(morpholin-4-yl)-5-(trifluoromethyl)phenyl]-3,6-dihydro-2H-1,3,4-oxadiazin-2-one]
18 | 50 | 40 | 110 | Cc1ncccc1-c1ccc(C2=NNC(=O)OC2)cc1F [Example 96, 5-[3-Fluoro-4-(2-methylpyridin-3-yl)phenyl]-3,6-dihydro-2H-1,3,4-oxadiazin-2-one]
19 | 150 | 48 | 320 | CCc1ccccc1-c1ccc(C2=NNC(=O)OC2)cc1F [Example 84, 5-(2′-Ethyl-2-fluorobiphenyl-4-yl)-3,6-dihydro-2H-1,3,4-oxadiazin-2-one]
20 | 31 | 58 | 30 | Cc1cc(C2=NNC(=O)OC2)ccc1-c1ccc(=O)[nH]c1 [Example 12, 5-[3-Methyl-4-(6-oxo-1,6-dihydropyridin-3-yl)phenyl]-3,6-dihydro-2H-1,3,4-oxadiazin-2-one]
3 | 45 | 5 | 220 | O=C1NN=C(c2ccc(NC[C@H]3CCCO3)c(C(F)(F)F)c2)CO1 [Example 225, 5-[4-({[(2R)-Oxolan-2-yl]methyl}amino)-3-(trifluoromethyl)phenyl]-3,6-dihydro-2H-1,3,4-oxadiazin-2-one]
9 | 700 | 29 | 270 | O=C1NN=C(c2ccc(N3CCC(F)(F)C3)c(F)c2)CO1 [Example 26, 5-[4-(3,3-Difluoropyrrolidin-1-yl)-3-fluorophenyl]-3,6-dihydro-2H-1,3,4-oxadiazin-2-one]
37 | 35 | 17 | 58 | O=C1NN=C(c2ccc(-c3cccc(O)c3)c(F)c2)CO1 [Example 104, 5-(2-Fluoro-3′-hydroxy[1,1′-biphenyl]-4-yl)-3,6-dihydro-2H-1,3,4-oxadiazin-2-one]
40 | 310 | 64 | 570 | O=C1NN=C(c2ccc(-c3cc(F)c(F)c(F)c3)c(C(F)(F)F)c2)CO1 [Example 58, 5-[3′,4′,5′-Trifluoro-2-(trifluoromethyl)biphenyl-4-yl]-3,6-dihydro-2H-1,3,4-oxadiazin-2-one]
58 | > 1000 | 80 | > 1000 | CC(C)(O)c1ccc(C2=NNC(=O)OC2)cc1C(F)(F)F [Example 278, 5-[4-(2-Hydroxypropan-2-yl)-3-(trifluoromethyl)phenyl]-3,6-dihydro-2H-1,3,4-oxadiazin-2-one]
8 | 33 | 16 | 83 | O=C1NN=C(c2ccc(-c3ccc(F)nc3)c(F)c2)CO1 [Example 77, 5-[3-Fluoro-4-(6-fluoropyridin-3-yl)phenyl]-3,6-dihydro-2H-1,3,4-oxadiazin-2-one]
20 | 180 | 32 | 240 | C[C@@H]1OC(=O)NN=C1c1ccc(-c2cc(F)c(F)cc2F)c(C(F)(F)F)c1 [Example 169, (6S)-6-Methyl-5-[2′,4′,5′-trifluoro-2-(trifluoromethyl)[1,1′-biphenyl]-4-yl]-3,6-dihydro-2H-1,3,4-oxadiazin-2-one]
37 | 150 | 12 | 130 | O=C1NN=C(c2ccc(-c3ccc(F)c(O)c3)c(C(F)(F)F)c2)CO1 [Example 37, 5-[4′-Fluoro-3′-hydroxy-2-(trifluoromethyl)biphenyl-4-yl]-3,6-dihydro-2H-1,3,4-oxadiazin-2-one]
10 | 29 | 21 | 48 | Cc1cnccc1-c1ccc(C2=NNC(=O)OC2)cc1F [Example 78, 5-[3-Fluoro-4-(3-methylpyridin-4-yl)phenyl]-3,6-dihydro-2H-1,3,4-oxadiazin-2-one]
> 100 | 280 | > 100 | 270 | Cc1n[nH]c(C)c1-c1ccc(C2=NNC(=O)OC2)cc1C(F)(F)F [Example 128, 5-[4-(3,5-Dimethyl-1H-pyrazol-4-yl)-3-(trifluoromethyl)phenyl]-3,6-dihydro-2H-1,3,4-oxadiazin-2-one]
10 | 230 | 16 | 320 | O=C1NN=C(c2ccc(-c3ccc(F)c(F)c3)c(C(F)(F)F)c2)CO1 [Example 61, 5-[3′,4′-Difluoro-2-(trifluoromethyl)biphenyl-4-yl]-3,6-dihydro-2H-1,3,4-oxadiazin-2-one]
7 | 25 | 17 | 17 | CC1OC(=O)NN=C1c1cc(F)c(N2CCOCC2)c(F)c1 (racemic) [Example 17, (rac)-5-[3,5-Difluoro-4-(morpholin-4-yl)phenyl]-6-methyl-3,6-dihydro-2H-1,3,4-oxadiazin-2-one]
8 | 35 | 14 | 51 | Cc1cc(C#N)ccc1-c1ccc(C2=NNC(=O)OC2)cc1F [Example 163, 2′-Fluoro-2-methyl-4′-(2-oxo-3,6-dihydro-2H-1,3,4-oxadiazin-5-yl)[1,1′-biphenyl]-4-carbonitrile]

SMILES | IC50 [1] [nM] | IC50 [2] [nM] | IC50 [3] [nM] | IC50 [4] [nM]
O=C1NN=C(c2ccc(C3=CCNCC3)c(C(F)(F)F)c2)CO1 [Example 328, 5-[4-(1,2,3,6-tetrahydropyridin-4-yl)-3-(trifluoromethyl)phenyl]-3,6-dihydro-2H-1,3,4-oxadiazin-2-one] | 47 | 74 | > 100 | 91
